Laboratory results taken from PubChem BioAssay (NCI).
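Briefly, cells in 96-well plates were exposed to five compound concentrations for 48 h, and endpoints were estimated by linear interpolation. The concentration for 50% growth inhibition is given as GI50. At the TGI there is no net growth.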

Columns and labels:
Test in all cases: NCI-60 cell line screen, 48 h
[1] = test system: EKVX NSCLC
[2] = test system: BT-549 breast
[3] = test system: LOX IMVI melanoma
[4] = test system: SK-MEL-2 melanoma
[5] = test system: M14 melanoma
[6] = test system: ACHN renal
[7] = test system: HS 578T breast
[8] = test system: SF-295 CNS
[9] = test system: NCI-H522 lung
[10] = test system: K-562 leukemia

| Compound | GI50 [1] [µM] | TGI [1] [µM] | GI50 [2] [µM] | TGI [2] [µM] | GI50 [3] [µM] | TGI [3] [µM] | GI50 [4] [µM] | TGI [4] [µM] | GI50 [5] [µM] | TGI [5] [µM] | GI50 [6] [µM] | TGI [6] [µM] | GI50 [7] [µM] | TGI [7] [µM] | GI50 [8] [µM] | TGI [8] [µM] | GI50 [9] [µM] | TGI [9] [µM] | GI50 [10] [µM] | TGI [10] [µM] |
| --- | --- | --- | --- | --- | --- | --- | --- | --- | --- | --- | --- | --- | --- | --- | --- | --- | --- | --- | --- | --- |
| O=c1[nH]cnc2c1nnn2C1OC(CO)C(O)C1O (centres undefined) | 60.4 | > 100 | 7.77 | > 100 | 0.779 | > 100 | 12.3 | > 100 | 1.84 | > 56.2 | 1.04 | > 100 | 4.27 | 69.8 | 1.71 | > 65.7 | 1.48 | 14 | 3.97 | > 100 |
| CCON=C1C(C)(C)C(C)(C)C(C)(C)C1(C)C |  | > 100 |  | > 100 |  | > 100 |  | > 100 |  | > 100 |  | > 100 |  | > 100 |  | > 100 |  | > 100 |  | > 100 |
| CCN(CC)CCOc1ccc(Nc2ncc3cc(-c4c(Cl)cccc4Cl)c(=O)n(CCOC)c3n2)cc1 | 0.796 | 7.38 | 0.533 | 2.7 | 0.0318 | 0.153 | 0.493 | 7.6 | 0.233 | 1.5 | 0.0205 | 5.72 | 0.0273 | 1.57 | 0.375 | 6.07 | 0.134 | 1.8 | 0.005 | 18.2 |
| CN(C)C(=S)NN=C(c1ccccn1)c1ccccn1 | 0.0247 | 23.8 | 0.074 | 15.4 | < 0.01 | 11.5 | 0.106 | 4.2 | < 0.0147 | 0.349 | < 0.0108 | 10.7 |  | > 55.4 | 0.0421 | 18.6 | 0.124 | 19.1 |  | > 100 |
| Cc1[nH]c(C(=O)Nc2ccc(C(=O)N3CCNCC3)cc2OC(C)C)c(Cl)c1Cl | 3.49 | 15 | 14.3 | 29 | 1.77 | 3.25 | 1.97 | 3.79 | 1.94 | 3.57 | 1.68 | 3.07 | 1.74 | 3.91 | 1.89 | 3.68 | 1.72 | 3.42 | 2.15 | 4.71 |
| C=C1C(=O)O[C@H]2[C@H]1CC/C(CNS(=O)(=O)c1ccc3ccccc3c1)=C\CC[C@@]1(C)O[C@@H]21 | 2.48 | 11.1 | 1.76 | 4.02 | 1.43 | 2.77 | 2.13 | 5.45 | 1.57 | 3.49 | 0.514 | 1.91 | 4.69 | 29.1 | 7.49 | 20.9 | 0.444 | 1.8 | 0.691 | 4.46 |
| C[N+](C)([O-])CCCNc1c2ccccc2nc2cccc([N+](=O)[O-])c12 |  | 0.901 |  | 2.91 |  | 6.59 |  | 0.421 |  | 0.772 |  | 3.74 |  | 7.63 |  | 15 |  | 0.67 |  | > 100 |
| CN(C)/C=C/c1nnnn1-c1ccc(Cl)cc1 | 30.9 | 82.8 | 8.56 | 38.7 | 21.7 | > 100 | 13.2 | > 100 | 5.21 | 44.1 | 24.7 | > 100 | 17.5 | 79.7 | 19 | 36.7 | 25.2 | 64.8 | 19.6 | > 100 |
| CC/C=C\C/C=C\C[C@H](O)C/C=C1/C(=O)C=C[C@H]1C/C=C\CCC(=O)OC | > 8.25 | > 8.25 | 2.78 | > 8.25 | 1.36 | 2.85 | > 8.25 | > 8.25 | 6.11 | > 8.25 | 3.06 | > 8.25 | 7.66 | > 8.25 | > 8.25 | > 8.25 | 1.39 | 3.42 | 2.26 | > 8.25 |
| O=C1c2ccccc2-c2c1c1ccc([N+](=O)[O-])cc1c(=O)n2CCNCCCNCCn1c2c(c3ccc([N+](=O)[O-])cc3c1=O)C(=O)c1ccccc1-2 | 4.87 | 28.2 | 2.57 | 50 | 0.0791 | 2.55 | 4 | 21.7 | 0.888 | 23.5 | 0.338 | 24.5 | 1.34 | 31.4 | 0.0715 | 19.9 | 1.14 | 19.5 | 0.0492 | 28.2 |
| COc1ccc(Nc2ncccc2/C=C/C(=O)c2cc(OC)c(OC)c(OC)c2)cc1 | 1.8 | 4.01 | 1.58 | 3.08 | 1.23 | 2.48 | 1.47 | 2.99 | 1.65 | 3.16 | 1.55 | 2.96 | 2.68 | 9.6 | 1.85 | 5.59 | 0.36 | 1.64 | 0.783 | 3.51 |
| CCCCCCCCCCCCCC[P+](CCCCCC)(CCCCCC)CCCCCC | 0.0632 | 0.917 | 0.0412 | 0.381 | 0.0583 | 0.497 | 0.0266 | > 100 | 0.0521 | 2.91 | 0.26 | 1.51 | 0.041 |  | 0.0783 | 0.432 | 0.105 | 0.956 | 0.0232 | 0.0858 |
| COc1cc([C@@H]2c3cc4c(cc3C(Br)[C@H]3COC(=O)[C@H]23)OCO4)cc(OC)c1OC (some centres undefined) | 0.533 | > 100 | 0.254 |  | 0.264 | > 100 | 0.499 | > 100 | 0.22 |  | 0.241 | > 100 | 0.142 | 0.707 | 0.0859 |  | 0.072 | 0.389 | 0.185 | > 100 |
| CC(=N\O)/C(C)=N/O.CC(=N\O)/C(C)=N/O.CC(=N\O)/C(C)=N/O.CC(=N\O)/C(C)=N/O.[Cu].[Cu] | 19.4 | 38.2 | 19 | 33.4 | 19 | 35.3 | 17.4 | 31.4 | 18.9 | 34.7 | 18.7 | 32.7 | 29.6 | 65.9 | 19.9 | 37.9 | 18.2 | 34.1 | 34.3 | 91.9 |
